# According to US8815829B2, “3′-azido purine nucleotide prodrugs for treatment of viral infections” (priority 2008, dated 2014):
# Read-outs that look alike come from different tables or passages of the source.
# Columns and labels:
# [1] = test system: HIV-2/pROD10; assay: HIV-2 drug susceptibility in PBM cells; format: cell-based; conditions: Human immunodeficiency virus 2, PBMC
# [2] = test system: HBV; assay: Anti-HBV assay (AD-38 cell line); format: cell-based; conditions: Hepatitis B virus
# Description: The anti-HBV activity of the compounds was determined by treating the AD-38 cell line carrying wild type HBV under the control of tetracycline (see Ladner S. K., Otto M. J., Barker C. S., Zaifert K., Wang G. H., Guo J. T., Seeger C. & King R. W. Antimicrob. Agents Chemother. 1997, 41, 1715-20). Removal of tetracycline from the medium [Tet (−)] results in the production of HBV. The levels of HBV in the culture supernatant fluids from cells treated with the compounds were compared with that of the untreated controls. Control cultures with tetracycline [Tet (+)] were also maintained to determine the basal levels of HBV expression.
# [3] = test system: PBM cells; assay: Cytotoxicity assay in PBM cells; format: cell-based, human; conditions: Homo sapiens, PBMC; Table 5; read-out: Toxicity IC50 PBM
# [4] = test system: CEM cells; assay: Cytotoxicity assay in CEM cells; format: cell-based, human; conditions: Homo sapiens, CCRF-CEM; Table 5; read-out: Toxicity IC50 CEM
# [5] = test system: Vero cells; assay: Cytotoxicity assay in Vero cells; format: cell-based; conditions: Chlorocebus sabaeus, Vero, read-out: Toxicity IC50 Vero
# [6] = test system: HSV-1; assay: HSV-1 drug susceptibility assay; format: cell-based; conditions: Human alphaherpesvirus 1
# Description: (§1) Agents Chemother. […] K., Otto, M. J., Schinazi, R. F. “Antiviral activities and cellular toxicities of modified 2′,3′-dideoxy-2′,3′-didehydrocytidine analogs” Antimicrob. Agents Chemother. 2002, 46, 3854-60. • ^cHSV-1 drug susceptibility assay was done as previously described in: Schinazi, R. F., Peters, J., Williams, C. C., Chance, D., Nahmias, A. J. “Effect of combinations of acyclovir with vidarabine or its 5′-monophosphate on herpes simplex virus in cell culture and in mice.” Antimicrob. Agents Chemother. 1982, 22, 499-507. • ^dHCV Replicon Assay^1: Huh 7 Clone B cells containing HCV Replicon RNA were seeded in a 96-well plate at 5000 cells/well, and the compounds were tested at 10 μM in triplicate immediately after seeding. Following five days incubation (37° C., 5% CO2), total cellular RNA was isolated by using versaGene RNA purification kit from Gentra. Replicon RNA and an internal control (TaqMan rRNA control reagents, Applied Biosystems) were amplified in a single step multiplex Real Time RT-PCR Assay. The antiviral effectiveness of the compounds was calculated by subtracting the threshold RT-PCR cycle of the test compound from the threshold RT-PCR cycle of the no-drug control (ΔCtHCV). A ΔCt of 3.3 equals a 1-log reduction (equal to 90% less starting material) in Replicon RNA levels. The cytotoxicity of the compounds was also calculated by using the ΔCt rRNA values. 77 (2′-Me-C) was used as the control. To determine EC90 and IC50 values^2, ΔCt: values were first converted into fraction of starting material^3 and then were used to calculate the % inhibition.
# [7] = test system: HCV Replicon RNA; assay: HCV Replicon Assay (Huh 7 Clone B cells); format: cell-based; conditions: Hepatitis C virus, Huh-7, 120 h, tested at 10 μM, five days
# Description: as §1
# [8] = test system: adenosine deaminase; assay: Adenosine deaminase assay (deamination of nucleosides); format: in vitro ADME; conditions: 50 μM, pH 7.4
# Description: In order to determine if these 6-substituted compounds are converted to G analogs by the enzyme adenosine deaminase, a series of enzyme kinetics experiments were undertaken.
# To determine the propensity for deamination of the APN nucleosides by adenosine deaminase, nucleoside compounds were incubated with the commercially available purified enzyme, and the reaction was followed spectrophotometrically. Reaction conditions were 50 mM potassium phosphate, pH 7.4, with 50 μM APN nucleoside in 0.5 mL at 25° C. Reaction time was 7 minutes with 0.002 units of enzyme and 120 minutes with 0.2 units of enzyme. (The unit definition of adenosine deaminase is one unit will deaminate 1.0 μmol of adenosine to inosine per minute at pH 7.5 at 25° C.) Deoxyadenosine was the positive control which was 59% deaminated under the given conditions in 7 minutes with 0.002 units of enzyme. Deoxyguanosine was the negative control. Optical density was measured at 265 nm or 285 nm. The difference in optical density between the beginning and the end of the experiment was divided by the extinction coefficient then multiplied by the volume of the reaction to determine the number of mols of substrate transformed into product. Mols of product were divided by mols of substrate equivalent to a 100% complete reaction then multiplied by 100 to obtain percent deamination. The limit of detection was 0.001 optical density units.
# [9] = test system: MT-2 cells; assay: Intracellular nucleotides formed in MT-2 cells; format: in vitro ADME
# [10] = test system: PBM cells; conditions: human, 4 h, 50 μM
# [11] = test system: HIV-1/LAI; assay: Anti-HIV-1 assay in PBM cells; format: cell-based; conditions: Human immunodeficiency virus 1, PBMC, PBM cells; read-out: HIV-1/LAI (PBM) EC90
# Description: Stock solutions (20-40 mM) of the compounds were prepared in sterile DMSO and then diluted to the desired concentration in growth medium. Cells were infected with the prototype HIV-1LAI at a multiplicity of infection of 0.01. Virus obtained from the cell supernatant was quantified on day 6 after infection by a reverse transcriptase assay using (rA)n·(dT)12-18 as template-primer. […] The antiviral EC50 and EC90 were obtained from the concentration-response curve using the median effective method described previously (see Chou T.-C. & Talalay P. Adv. Enzyme Regul. 1984, 22, 27-55; Belen'kii M. S. & Schinazi R. F. Antiviral Res. 1994, 25, 1-11).
# [12] = test system: WT (LAI) HIV-1; assay: Single cycle assay in P4/R5 cells, WT HIV-1; format: cell-based; conditions: Human immunodeficiency virus 1, P4/R5, read-out: EC50 WT (LAI), P4/R5 cells, mean ± standard deviation
# Description: (§2) In a 96-well plate, two- or three-fold serial dilutions of an inhibitor were added to P4/R5 cells in triplicate. […] At 48 h post-infection, a cell lysis buffer and luminescent substrate (Gal-Screen; Tropix/Applied Biosystems) was added to each well, and relative light unit values were determined using a luminometer (ThermoLabSystems, Waltham, Mass.).
# (§3) Virus stocks were prepared as described above. Drug susceptibility assays were performed using the single- and multiple-replication-cycle assays also described above.
# [13] = test system: HIV-1 AZT2 (D67N/K70R/T215F/K219Q); assay: microbe, parasite or virus in culture; format: cell-based; conditions: Human immunodeficiency virus 1; P4/R5 cells, mean ± standard deviation
# Description: as §2, §3
# [14] = test system: HIV-1 AZT3 (M41L/L210W/T215Y); assay: microbe, parasite or virus in culture; format: cell-based; conditions: Human immunodeficiency virus 1; P4/R5 cells, mean ± standard deviation
# Description: as §2, §3
# [15] = test system: HIV-1 AZT7 (M41L/D67N/K70R/T215F/K219Q); assay: microbe, parasite or virus in culture; format: cell-based; conditions: Human immunodeficiency virus 1; P4/R5 cells, mean ± standard deviation
# Description: as §2, §3
# [16] = test system: HIV-1 AZT9 (M41L/D67N/K70R/L210W/T215Y/K219Q); assay: microbe, parasite or virus in culture; format: cell-based; conditions: Human immunodeficiency virus 1; P4/R5 cells, mean ± standard deviation
# Description: as §2, §3
# [17] = test system: HIV-1 K65R; assay: microbe, parasite or virus in culture; format: cell-based; conditions: Human immunodeficiency virus 1; P4/R5 cells, mean ± standard deviation
# Description: as §2, §3
# [18] = test system: HIV-1 L74V; assay: microbe, parasite or virus in culture; format: cell-based; conditions: Human immunodeficiency virus 1; P4/R5 cells, mean ± standard deviation
# Description: as §2, §3
# [19] = test system: HIV-1 M184V; assay: microbe, parasite or virus in culture; format: cell-based; conditions: Human immunodeficiency virus 1; P4/R5 cells, mean ± standard deviation
# Description: as §2, §3
# [20] = test system: HIV-1 Q151Mc (A62V/V75I/F77L/F116Y/Q151M); assay: microbe, parasite or virus in culture; format: cell-based; conditions: Human immunodeficiency virus 1, P4/R5, P4/R5 cells, mean ± standard deviation
# Description: as §2, §3
# [21] = test system: HIV-1 T69SSS (M41L/T69SSS/L210W/T215Y); assay: microbe, parasite or virus in culture; format: cell-based; conditions: Human immunodeficiency virus 1, P4/R5, P4/R5 cells, mean ± standard deviation
# Description: as §2, §3
SMILES,IC50 [3] [µM],IC50 [4] [µM],IC50 ([5]; Table 5) [µM],EC50 [6] [µM],EC90 [6] [µM],EC50 [7] [µM],EC90 [7] [µM],further results
"Nc1ccn([C@H]2CS[C@@H](CO)O2)c(=O)n1 [Compound 3TC, (−)-2′,3′-dideoxy-3′-thiacytidine, reference compound]",> 100,> 100,> 100,–,–,–,–,EC50 [1]: 0.075 µM; EC90 [1]: 0.42 µM; EC90 [2]: < 10 µM
CC(CO)Nc1nc(N)nc2c1ncn2[C@H]1CC(N=[N+]=[N-])[C@@H](CO)O1 (stereo partly shown) [drawing 51],> 100,> 100,> 100,> 100,> 100,> 10,> 10,–
C=CCN(C)c1nc(N)nc2c1ncn2[C@H]1CC(N=[N+]=[N-])[C@@H](CO)O1 (stereo partly shown) [drawing 48],> 100,27,–,> 100,> 100,> 10,> 10,IC50 [5]: 32 µM
"[N-]=[N+]=N[C@H]1C[C@H](n2cnc3c(Cl)nc(N)nc32)O[C@@H]1CO [Compound 68, ((2S,3S,5R)-5-(2-amino-6-chloro-9H-purin-9-yl)-3-azidotetrahydrofuran-2-yl)methanol]",–,–,–,–,–,–,–,"Deamination in 7 min (0.002 units Adenosine Deaminase) ([8]; 7 min): 12.81 ± 1.57%; Deamination in 120 min (0.2 units Adenosine Deaminase) ([8]; 120 min): 240.53 ± 5.86%; level of unchanged drug ([9]; MT-2 cells treated with drug for 30 min): Negligible levels of 6415 were detected; AZG-TP levels compared with AZG treatment ([9]; MT-2 cells, 4 hr at 50 μM): higher; nucleotides detected (LC/MS) [10]: detection of RFS-457-TP; species not detected (LC/MS) [10]: Neither Compound 6415 nor its phosphates were detected"
CN(C)c1nc(N)nc2c1ncn2[C@H]1CC(N=[N+]=[N-])[C@@H](CO)O1 (stereo partly shown) [drawing 53],> 100,> 100,> 100,> 100,> 100,> 10,> 10,–
C=CCNc1nc(N)nc2c1ncn2[C@H]1CC(N=[N+]=[N-])[C@@H](CO)O1 (stereo partly shown) [drawing 47],> 100,> 100,> 100,> 100,> 100,> 10,> 10,–
COCCNc1nc(N)nc2c1ncn2[C@H]1CC(N=[N+]=[N-])[C@@H](CO)O1 (stereo partly shown) [drawing 58],> 100,> 100,> 100,–,–,> 10,> 10,–
"Cc1cn([C@H]2C[C@H](N=[N+]=[N-])[C@@H](CO)O2)c(=O)[nH]c1=O [AZT, 3′-azido-3′-deoxythymidine, reference compound]",> 100,–,–,–,–,–,–,EC90 [11]: 0.02 µM; EC50 [1]: 0.0076 µM; EC90 [1]: 0.064 µM; EC50 [12]: 0.126 ± 0.04 µM; EC50 [13]: 11.1 ± 4.3 µM; EC50 [14]: 2.85 ± 0.88 µM; EC50 [15]: > 90 µM; EC50 [16]: > 90 µM; EC50 [17]: 0.163 ± 0.06 µM; EC50 [18]: 0.156 ± 0.03 µM; EC50 [19]: 0.095 ± 0.04 µM; EC50 [20]: > 90 µM; EC50 [21]: > 90 µM
CC(C)(CO)Nc1nc(N)nc2c1ncn2[C@H]1CC(N=[N+]=[N-])[C@@H](CO)O1 (stereo partly shown) [drawing 50],> 100,> 100,> 100,> 100,> 100,> 10,> 10,–
"[N-]=[N+]=NC1C[C@H](n2cnc3c(O)nc(N)nc32)O[C@@H]1CO (stereo partly shown) [Compound 56, 3′-Azido-2′,3′-dideoxyguanosine]",–,–,–,–,–,–,–,"concentration at which phosphorylation reaches steady state ([9]; MT-2, four different concentrations): 30 µM; major metabolite [10]: RFS-457-TP as the major metabolite"
[N-]=[N+]=NC1C[C@H](n2cnc3c(NC4CC4)nc(N)nc32)O[C@@H]1CO (stereo partly shown) [drawing 56],> 100,> 100,> 100,> 100,> 100,> 10,> 10,–
[N-]=[N+]=NC1C[C@H](n2cnc3c(NCCCCCO)nc(N)nc32)O[C@@H]1CO (stereo partly shown) [drawing 49],> 100,> 100,> 100,> 100,> 100,> 10,> 10,–
